#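 96-well plates; 48 h exposure; 5 concentrations. Endpoints by linear interpolation between flanking doses. Not reached: highest tested concentration assigned. TGI denotes the concentration required for complete inhibition of growth.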
# Columns and labels:
# Assay in all cases: NCI anticancer screen, dose series, 48 h
# 786-0 renal = system: 786-0 renal
# A498 renal = system: A498 renal
# A549 NSCLC = system: A549 NSCLC
# ACHN renal = system: ACHN renal
# CCRF-CEM leukemia = system: CCRF-CEM leukemia
# COLO 205 colon = system: COLO 205 colon
# DU-145 prostate = system: DU-145 prostate
# EKVX NSCLC = system: EKVX NSCLC
# HCC-2998 colon = system: HCC-2998 colon
# HCT-116 colon = system: HCT-116 colon
# HCT-15 colon = system: HCT-15 colon
# HL-60(TB) leukemia = system: HL-60(TB) leukemia
# HOP-62 NSCLC = system: HOP-62 NSCLC
# HOP-92 NSCLC = system: HOP-92 NSCLC
# HS 578T breast = system: HS 578T breast
# HT29 colon = system: HT29 colon
# IGROV1 ovarian = system: IGROV1 ovarian
# K-562 leukemia = system: K-562 leukemia
# KM12 colon = system: KM12 colon
# M14 melanoma = system: M14 melanoma
# MALME-3M melanoma = system: MALME-3M melanoma
# MCF7 breast = system: MCF7 breast
# MDA-MB-231 breast = system: MDA-MB-231 breast
# MDA-MB-435 = system: MDA-MB-435
# MOLT-4 leukemia = system: MOLT-4 leukemia
# NCI-H226 lung = system: NCI-H226 lung
# NCI-H23 lung = system: NCI-H23 lung
# NCI/ADR-RES ovarian = system: NCI/ADR-RES ovarian
# OVCAR-4 ovarian = system: OVCAR-4 ovarian
# OVCAR-5 ovarian = system: OVCAR-5 ovarian
# OVCAR-8 ovarian = system: OVCAR-8 ovarian
# RPMI-8226 leukemia = system: RPMI-8226 leukemia
# RXF 393 renal = system: RXF 393 renal
# SF-268 CNS = system: SF-268 CNS
# SF-295 CNS = system: SF-295 CNS
# SF-539 CNS = system: SF-539 CNS
# SK-MEL-28 melanoma = system: SK-MEL-28 melanoma
# SK-MEL-5 melanoma = system: SK-MEL-5 melanoma
# SK-OV-3 ovarian = system: SK-OV-3 ovarian
# SN12C renal = system: SN12C renal
# SNB-19 CNS = system: SNB-19 CNS
# SNB-75 CNS = system: SNB-75 CNS
# SR leukemia = system: SR leukemia
# SW-620 colon = system: SW-620 colon
# T-47D breast = system: T-47D breast
# TK-10 renal = system: TK-10 renal
# U251 CNS = system: U251 CNS
# UACC-257 melanoma = system: UACC-257 melanoma
# UACC-62 melanoma = system: UACC-62 melanoma
# UO-31 renal = system: UO-31 renal
# CAKI-1 renal = system: CAKI-1 renal
# LOX IMVI melanoma = system: LOX IMVI melanoma
# NCI-H460 lung = system: NCI-H460 lung
# PC-3 prostate = system: PC-3 prostate
# SK-MEL-2 melanoma = system: SK-MEL-2 melanoma
structure (smiles),measurement,setting,value
O=C(CCC(=O)CC(O)(C(F)(F)F)C(F)(F)F)CC(O)(C(F)(F)F)C(F)(F)F,TGI,786-0 renal,> 100 µM
same,TGI,A498 renal,67.4 µM
same,TGI,A549 NSCLC,> 100 µM
same,TGI,ACHN renal,> 100 µM
same,TGI,CCRF-CEM leukemia,> 100 µM
same,TGI,COLO 205 colon,96.3 µM
same,TGI,DU-145 prostate,> 100 µM
same,TGI,EKVX NSCLC,> 100 µM
same,TGI,HCC-2998 colon,> 100 µM
same,TGI,HCT-116 colon,> 100 µM
same,TGI,HCT-15 colon,> 100 µM
same,TGI,HL-60(TB) leukemia,91.2 µM
same,TGI,HOP-62 NSCLC,> 100 µM
same,TGI,HOP-92 NSCLC,49.4 µM
same,TGI,HS 578T breast,> 100 µM
same,TGI,HT29 colon,> 100 µM
same,TGI,IGROV1 ovarian,> 100 µM
same,TGI,K-562 leukemia,> 100 µM
same,TGI,KM12 colon,> 100 µM
same,TGI,M14 melanoma,> 100 µM
same,TGI,MALME-3M melanoma,> 100 µM
same,TGI,MCF7 breast,> 100 µM
same,TGI,MDA-MB-231 breast,> 100 µM
same,TGI,MDA-MB-435,> 100 µM
same,TGI,MOLT-4 leukemia,> 100 µM
same,TGI,NCI-H226 lung,69.5 µM
same,TGI,NCI-H23 lung,95.8 µM
same,TGI,NCI/ADR-RES ovarian,> 100 µM
same,TGI,OVCAR-4 ovarian,> 100 µM
same,TGI,OVCAR-5 ovarian,> 100 µM
same,TGI,OVCAR-8 ovarian,> 100 µM
same,TGI,RPMI-8226 leukemia,97.8 µM
same,TGI,RXF 393 renal,> 100 µM
same,TGI,SF-268 CNS,> 100 µM
same,TGI,SF-295 CNS,> 100 µM
same,TGI,SF-539 CNS,> 100 µM
same,TGI,SK-MEL-28 melanoma,> 100 µM
same,TGI,SK-MEL-5 melanoma,> 100 µM
same,TGI,SK-OV-3 ovarian,> 100 µM
same,TGI,SN12C renal,> 100 µM
same,TGI,SNB-19 CNS,72.4 µM
same,TGI,SNB-75 CNS,> 100 µM
same,TGI,SR leukemia,> 100 µM
same,TGI,SW-620 colon,> 100 µM
same,TGI,T-47D breast,> 100 µM
same,TGI,TK-10 renal,> 100 µM
same,TGI,U251 CNS,> 100 µM
same,TGI,UACC-257 melanoma,> 100 µM
same,TGI,UACC-62 melanoma,> 100 µM
same,TGI,UO-31 renal,59.3 µM
O=C(NC1CCCCC1)c1cc2ccccc2cc1O,TGI,786-0 renal,84.5 µM
same,TGI,A498 renal,78.3 µM
same,TGI,CAKI-1 renal,> 100 µM
same,TGI,CCRF-CEM leukemia,> 100 µM
same,TGI,COLO 205 colon,> 100 µM
same,TGI,DU-145 prostate,> 100 µM
same,TGI,EKVX NSCLC,> 100 µM
same,TGI,HCC-2998 colon,58.8 µM
same,TGI,HCT-116 colon,47.6 µM
same,TGI,HCT-15 colon,65.1 µM
same,TGI,HL-60(TB) leukemia,96.1 µM
same,TGI,HOP-62 NSCLC,> 100 µM
same,TGI,HOP-92 NSCLC,65.1 µM
same,TGI,HS 578T breast,97.8 µM
same,TGI,HT29 colon,37 µM
same,TGI,IGROV1 ovarian,> 100 µM
same,TGI,K-562 leukemia,55.9 µM
same,TGI,KM12 colon,> 100 µM
same,TGI,LOX IMVI melanoma,> 100 µM
same,TGI,M14 melanoma,53.3 µM
same,TGI,MCF7 breast,> 100 µM
same,TGI,MDA-MB-231 breast,> 100 µM
same,TGI,MDA-MB-435,> 100 µM
same,TGI,NCI-H226 lung,41 µM
same,TGI,NCI-H460 lung,62.8 µM
same,TGI,NCI/ADR-RES ovarian,54.7 µM
same,TGI,OVCAR-4 ovarian,> 100 µM
same,TGI,OVCAR-8 ovarian,67.9 µM
same,TGI,PC-3 prostate,99 µM
same,TGI,RPMI-8226 leukemia,46.6 µM
same,TGI,RXF 393 renal,58.5 µM
same,TGI,SF-268 CNS,> 100 µM
same,TGI,SF-295 CNS,> 100 µM
same,TGI,SF-539 CNS,57.2 µM
same,TGI,SK-MEL-2 melanoma,44.7 µM
same,TGI,SK-MEL-28 melanoma,> 100 µM
same,TGI,SK-MEL-5 melanoma,47.9 µM
same,TGI,SK-OV-3 ovarian,> 100 µM
same,TGI,SNB-19 CNS,> 100 µM
same,TGI,SNB-75 CNS,> 100 µM
same,TGI,SR leukemia,87.2 µM
same,TGI,SW-620 colon,> 100 µM
same,TGI,T-47D breast,> 100 µM
same,TGI,TK-10 renal,> 100 µM
same,TGI,U251 CNS,> 100 µM
same,TGI,UACC-257 melanoma,> 100 µM
same,TGI,UACC-62 melanoma,> 100 µM
same,TGI,UO-31 renal,99 µM
COc1ccc2[nH]c3c(c2c1)CCN[C@]31CS[C@@H]2c3c(OC(C)=O)c(C)c4c(c3[C@H](COC1=O)N1[C@@H]2[C@H]2c3c(cc(C)c(OC)c3O)C[C@@H]([C@@H]1O)N2C)OCO4,TGI,ACHN renal,1.12 µM
same,TGI,CAKI-1 renal,1.68 µM
same,TGI,CCRF-CEM leukemia,> 100 µM
same,TGI,HOP-92 NSCLC,0.0132 µM
same,TGI,HT29 colon,> 100 µM
same,TGI,K-562 leukemia,> 100 µM
same,TGI,MOLT-4 leukemia,> 100 µM
same,TGI,SR leukemia,> 100 µM

# Source: PubChem BioAssay (NCI)
